Values joined by “and” are separate entries in the source; they are usually repeats but may differ in a detail not shown here. Equal values may be shown once.

The subject of one data set is HeLa cell lines. Also on record: method as in PMID 31759659. To be noted: 48 h; cited from earlier work.
Data set [1] deals with A549-Luc lung cancer cells. The experiment in a line: In vivo xenograft tumor model, tumor size by IVIS imaging. Also on record: species or system nude mice. To be noted: for tumor size: individual nude mice, Tnd = tumor not detected, Ex = dead; for tumor outcome after treatment: A549-Luc xenograft nude mice, IVIS imaging; for tumor size initially: before treatment, individual nude mice (1)-(5). As to the method:
Luc cell line (A549-Luc cell), which has luciferase activity, was used to determine the cancer treatment potential of compounds 3 and 4 for in vivo experiments. Cells were cultured in DMEM Ham’s F12 [10% FBS, 1% L-glutamine, 1% gentamicin, and 1 mM 4-(2-hydroxyethyl)-1-piperazineethanesulfonic acid] broth in a CO2 incubator set at 37 °C. Sufficient stocks were prepared by passaging the cells twice a week, and cells that actively proliferated in the logarithmic phase were used in the tests.
Approval for monitoring the cancer treatment potential of the synthesized structures in vivo conditions was taken by the Animal Ethics Committee of Ege University on 24.01.2018 with the number 2018-015. Male atypical nude mice, 6–8 weeks old, were used for in vivo xenograft tumor models. […] For the purpose of xenograft administration, nude mice were injected subcutaneously with 100 μL of 5 × 10^6 A549-Luc cell suspension. The presence of cancer after cell administration to nude mice was followed by imaging with an IVIS device. In order to monitor tumor formation and tumor volume detection, luciferin [Biovision Inc., USA; 12 mg/mL in phosphate-buffered saline (PBS)] was injected intraperitoneally followed by visualization with IVIS 5 min later. When tumor volume reaches about 2000 mm^3, cancerous nudes are divided into three groups: the control group, 3 group, and 4 group. Grouping was made as 3–5 animals in each group. The following procedures were prepared according to the groups, and then they were implemented. In addition, the weights of nude mice were regularly checked and recorded.
Compound 3(Y) group: Compound 3(Y) was prepared in DMSO at a concentration of 200 μM, and 20 μL was administered via the tail vein in three doses a week.
Compound 4(X) group: Compound 4(X) was prepared in DMSO at a concentration of 200 μM, and 20 μL was given three doses a week through the tail vein.
Male atypical nude mice aged 6–8 weeks are commonly used in in vivo xenograft tumor models. A549-luc lung cancer cells were injected into nude mice in all three groups, and tumor growth was induced with a xenograft model. For xenograft administration, 100 μL of 5 × 10^6 A549-luc cell suspension was injected subcutaneously into nude mice. After cell application to nude mice, it was determined whether there was cancer or not by imaging with the IVIS device. After the cancer groups were formed, the treatment phase was started. Compound 4(X) substance, compound 3(Y), and cancer control groups were formed, five in each group. Each prepared sample was given to the animals by tail vein administration, three doses (as described in Section 2.3) per week, and the IVIS images taken at 5 min after luciferin (200 μL of 12 mg/mL stock administered […]) at certain time intervals were evaluated. Although no tumor was detected on the 15th day after cell implantation, the treatment was continued for two more weeks and whether the tumor recurred or not was determined by IVIS imaging.

The test system of the next data set is A549 cell lines. The experiment in a line: MTT proliferation assay, A549 cells. The data set is classed as cell-based. To be noted: Homo sapiens, A549 (A549-Luc) cells. As to the method: The A549 (human lung carcinoma) cell line was grown in a Dulbecco’s Modified Eagle Medium (DMEM) containing 10% fetal bovine serum (FBS) and 100 units/mL penicillin–100 μg/mL streptomycin and 2 mM L-glutamine for cytotoxicity experiments. Cells were maintained at 37 °C temperature conditions containing 5% CO2. When the cells covered 95–98% of the flask, they were passaged.
The 3-(4,5-dimethylthiazol-2-yl)-2,5-diphenyltetrazolium bromide (MTT) proliferation assay was performed to evaluate the cytotoxicity of the 3 and 4 compounds. Cells were seeded at a density of 5 × 10^4 cells/cm^2 and incubated at 37 °C in 95% air, 5% CO2 environments for 24 h. Substances 3 and 4 were first dissolved in DMSO, then dilutions were prepared by dispersing them in the DMEM cell growth medium. The dose intervals of substances 3 and 4 were prepared as 400, 200, 100, 50, and 25 μM. The dose intervals of substances 3 and 4 were placed on a 24-well cell culture plate and then incubated for 24 h. After incubation, the medium was removed and replaced with the MTT-containing medium. Plates were incubated for an additional 4 h at 37 °C. MTT medium was removed, and 100 μL of DMSO was added to dissolve the formazan crystals. The absorbance was determined using a plate reader at a wavelength of 540 nm. IC50 values for 24, 48, and 72 h were calculated using GraphPad Prism5 software (GraphPad, San Diego, CA).
Our group recently determined that isoindole-1,3-dione derivatives are potential tyrosine kinase enzyme inhibitors and have antiproliferative effects against some cell lines according to MTT test results. It has been confirmed that the antiproliferative effects vary according to the nitrogen (N) atom and the groups attached to the ring. In addition, some compounds are known to exert cytotoxic effects against more than one cell line. […] Benzyl derivatives of isoindole-1,3-dione 3 and 4 were synthesized according to the method used in our previous work.[9] First, the cytotoxic effects of both compounds against A549-Luc cells were examined. IC50 values of those drugs were calculated using the MTT activity assay. Cell viability of A549-Luc cells using two compounds was followed for 24, 48, and 72 h of incubation time. According to the results of these experiments, the optimum incubation period was determined as 48 h.

Another data set concerns CD1 mice. The experiment in a line: Acute toxicity study. It is filed as in vivo. To be noted: 200 μM, 100 μL intravenously once, 2 females and 2 males, 14 days.
[2] abbreviates: 7 days, 200 μM, 20 μL tail vein, three doses a week.

Consider `CC(=O)O[C@H]1C=C[C@H](OC(C)=O)[C@H]2C(=O)N(Cc3ccccc3)C(=O)[C@H]21` [compound 3], for which the IC50 in the data set with HeLa cell lines was 149 µM; in the data set on A549 cell lines (24 h), 266 µM; in the data set with A549 cell lines (48 h), 114 µM; in the data set with A549 cell lines (72 h), 68.8 µM. In addition, the tumor size result in data set [1] (setting [2]), in data set [1] (15 days) and in data set [1] (45 days) was “Tnd” in each case. In addition, in data set [1], the “tumor outcome after treatment” value is recorded as “completely destroyed”. The tumor size initially in data set [1] was 404.93 mm^3 and 301.26 mm^3 and 424.93 mm^3 and 731.33 mm^3 and 600.97 mm^3. Besides, the “abnormalities in the behavior of the mice” value in the data set with CD1 mice is reported as “no abnormalities”.

Regarding `CC(=O)O[C@@H]1[C@@H]2C(=O)N(Cc3ccccc3)C(=O)[C@@H]2C=C[C@H]1Cl` [compound 4], the IC50 was 141 µM with HeLa cell lines, 349 µM in the data set with A549 cell lines (24 h), 116 µM with A549 cell lines (48 h) and 83.6 µM with A549 cell lines (72 h). Also, the tumor size result in data set [1] (setting [2]) is “Tnd ^a”; in data set [1] (15 days) it was “Tnd ^a and Ex”; in data set [1] (45 days), “Tnd ^a and Ex”. Besides, the “tumor outcome after treatment” value in data set [1] is “completely destroyed”. Moreover, the tumor size initially in data set [1] is 570.91 mm^3 and 403.71 mm^3 and 482.52 mm^3 and 1518.02 mm^3 and 1124.09 mm^3. Also, the “abnormalities in the behavior of the mice” value with CD1 mice was “no abnormalities”.

In general, IC50 refers to the concentration needed to halve the response being measured.

(Values after publication PMC10077444, “Evaluation of In Vivo Biological Activity Profiles of Isoindole-1,3-dione Derivatives: Cytotoxicity, Toxicology, and Histopathology Studies” (ACS Omega, 2023).)
